For three molecules, Activity results are on record in ChEMBL document CHEMBL1130291, “Synthesis of trimethylated phosphonium and arsonium analogues of the osmoprotectant glycine betaine; contrasted biological activities in two bacterial species” (Bioorg Med Chem Lett, 1997).

Activity calls are given as the source filed them. No cut-off for these calls is given here.

Common to all, as to format: functional, organism-based
The subject of test [1] is Sinorhizobium meliloti. The experiment in a line: Osmoprotective activity of compound in Rhizobium meliloti 102F34 by restoring its growth rate was evaluated; Highly toxic.
Test [2] has as its system Sinorhizobium meliloti. The experiment in a line: Inhibition of the growth of Rhizobium meliloti was observed at 1 mM by inoculation of 0.5 M NaCl; No growth was observed.
In test [3] the test system is Escherichia coli. Description: Inhibitory activity against growth of Escherichia coli MC4100 in presence 0.8M NaCl; Strong inhibition.
For test [4], the system named is Escherichia coli. The experiment in a line: Inhibitory activity against growth of Escherichia coli MC4100 without NaCl; No effect.
The test system of test [5] is Sinorhizobium meliloti. Description: Osmoprotective activity of compound in Rhizobium meliloti 102F34 by restoring its growth rate was evaluated; Highly osmoprotective.

Turning to `C[As+](C)(C)CC(=O)[O-]`, the Activity entry is “Toxic” in test [1], “No growth” in test [2] and “No growth” in test [3]. Besides, the result in test [4] was inactive.
Consider `C[P+](C)(C)CC(=O)[O-]`, for which the Activity result was “Toxic” in test [1], “No growth” in test [2] and “No growth” in test [3]. Further, the outcome in test [4] was inactive.
Turning to `C[N+](C)(C)CC(=O)O`, the Activity entry in test [5] and in test [3] was “Highly osmoprotective” throughout. For the same molecule, the outcome in test [4] was inactive.
